Data as given in the NIST ThermoML archive (doi:10.1016/j.fluid.2015.10.026).
± gives the expanded uncertainty stated by the source.

Details: Liquid, Brillouin light scattering

CCC(C)(C)OC [2-methoxy-2-methylbutane]
Details	speed of sound [m/s]
293.15 K, 0 kPa	1133.3 ± 5.8
293.15 K, 1000 kPa	1139.7 ± 5.8
293.15 K, 2500 kPa	1149 ± 5.8
293.15 K, 4000 kPa	1158.3 ± 5.9
293.15 K, 5500 kPa	1167.7 ± 5.9
293.15 K, 7000 kPa	1177.2 ± 6
293.15 K, 8500 kPa	1186.7 ± 6
293.15 K, 10000 kPa	1196.4 ± 6.1
303.15 K, 10 kPa	1089.4 ± 6.2
303.15 K, 1000 kPa	1099.1 ± 5.6
303.15 K, 2500 kPa	1109.3 ± 5.6
303.15 K, 4000 kPa	1119.3 ± 5.7
303.15 K, 5500 kPa	1129.3 ± 5.7
303.15 K, 7000 kPa	1139.3 ± 5.8
303.15 K, 8500 kPa	1149.2 ± 5.8
303.15 K, 10000 kPa	1159 ± 5.9
313.15 K, 10 kPa	1046.4 ± 5.3
313.15 K, 1000 kPa	1058.3 ± 5.4
313.15 K, 2500 kPa	1069.4 ± 5.5
313.15 K, 4000 kPa	1080.3 ± 5.5
313.15 K, 5500 kPa	1091 ± 5.5
313.15 K, 7000 kPa	1101.4 ± 5.6
313.15 K, 8500 kPa	1111.7 ± 5.7
313.15 K, 10000 kPa	1121.8 ± 5.7
323.15 K, 20 kPa	1004.2 ± 6.2
323.15 K, 1000 kPa	1017.4 ± 5.2
323.15 K, 2500 kPa	1029.4 ± 5.2
323.15 K, 4000 kPa	1041.1 ± 5.3
323.15 K, 5500 kPa	1052.5 ± 5.4
323.15 K, 7000 kPa	1063.5 ± 5.4
323.15 K, 8500 kPa	1074.2 ± 5.5
323.15 K, 10000 kPa	1084.6 ± 5.5
333.15 K, 20 kPa	962.62 ± 5.9
333.15 K, 1000 kPa	976.26 ± 5
333.15 K, 2500 kPa	989.25 ± 5.1
333.15 K, 4000 kPa	1001.8 ± 5.1
333.15 K, 5500 kPa	1013.9 ± 5.2
333.15 K, 7000 kPa	1025.6 ± 5.2
333.15 K, 8500 kPa	1036.8 ± 5.3
333.15 K, 10000 kPa	1047.6 ± 5.3
343.15 K, 40 kPa	921.56 ± 6
343.15 K, 1000 kPa	934.97 ± 4.8
343.15 K, 2500 kPa	948.94 ± 4.9
343.15 K, 4000 kPa	962.37 ± 4.9
343.15 K, 5500 kPa	975.26 ± 5
343.15 K, 7000 kPa	987.61 ± 5.1
343.15 K, 8500 kPa	999.41 ± 5.1
343.15 K, 10000 kPa	1010.7 ± 5.2
353.15 K, 60 kPa	880.86 ± 6.1
353.15 K, 1000 kPa	893.5 ± 4.6
353.15 K, 2500 kPa	908.48 ± 4.7
353.15 K, 4000 kPa	922.83 ± 4.7
353.15 K, 5500 kPa	936.54 ± 4.8
353.15 K, 7000 kPa	949.61 ± 4.9
353.15 K, 8500 kPa	962.05 ± 4.9
353.15 K, 10000 kPa	973.86 ± 5
363.15 K, 90 kPa	840.4 ± 5
363.15 K, 1000 kPa	851.87 ± 4.4
363.15 K, 2500 kPa	867.87 ± 4.5
363.15 K, 4000 kPa	883.16 ± 4.5
363.15 K, 5500 kPa	897.74 ± 4.6
363.15 K, 7000 kPa	911.59 ± 4.7
363.15 K, 8500 kPa	924.74 ± 4.8
363.15 K, 10000 kPa	937.16 ± 4.8
373.15 K, 120 kPa	800.06 ± 4.2
373.15 K, 1000 kPa	810.06 ± 4.2
373.15 K, 2500 kPa	827.11 ± 4.3
373.15 K, 4000 kPa	843.38 ± 4.3
373.15 K, 5500 kPa	858.86 ± 4.4
373.15 K, 7000 kPa	873.55 ± 4.5
373.15 K, 8500 kPa	887.46 ± 4.6
373.15 K, 10000 kPa	900.58 ± 4.6
383.15 K, 160 kPa	759.72 ± 4
383.15 K, 1000 kPa	768.09 ± 4
383.15 K, 2500 kPa	786.2 ± 4.1
383.15 K, 4000 kPa	803.47 ± 4.2
383.15 K, 5500 kPa	819.89 ± 4.2
383.15 K, 7000 kPa	835.47 ± 4.3
383.15 K, 8500 kPa	850.21 ± 4.4
383.15 K, 10000 kPa	864.1 ± 4.5
393.15 K, 200 kPa	719.27 ± 3.8
393.15 K, 1000 kPa	725.95 ± 3.8
393.15 K, 2500 kPa	745.14 ± 3.9
393.15 K, 4000 kPa	763.44 ± 4
393.15 K, 5500 kPa	780.85 ± 4
393.15 K, 7000 kPa	797.37 ± 4.2
393.15 K, 8500 kPa	813 ± 4.2
393.15 K, 10000 kPa	827.74 ± 4.3
403.15 K, 240 kPa	678.61 ± 3.6
403.15 K, 1000 kPa	683.64 ± 3.6
403.15 K, 2500 kPa	703.93 ± 3.7
403.15 K, 4000 kPa	723.29 ± 3.8
403.15 K, 5500 kPa	741.73 ± 3.9
403.15 K, 7000 kPa	759.25 ± 4
403.15 K, 8500 kPa	775.83 ± 4.1
403.15 K, 10000 kPa	791.49 ± 4.1
413.15 K, 300 kPa	637.63 ± 3.4
413.15 K, 1000 kPa	641.15 ± 3.4
413.15 K, 2500 kPa	662.56 ± 3.5
413.15 K, 4000 kPa	683.02 ± 3.6
413.15 K, 5500 kPa	702.53 ± 3.7
413.15 K, 7000 kPa	721.09 ± 3.8
413.15 K, 8500 kPa	738.7 ± 3.9
413.15 K, 10000 kPa	755.35 ± 4
423.15 K, 360 kPa	596.25 ± 3.2
423.15 K, 1000 kPa	598.5 ± 3.2
423.15 K, 2500 kPa	621.05 ± 3.3
423.15 K, 4000 kPa	642.63 ± 3.4
423.15 K, 5500 kPa	663.25 ± 3.5
423.15 K, 7000 kPa	682.91 ± 3.6
423.15 K, 8500 kPa	701.6 ± 3.7
423.15 K, 10000 kPa	719.33 ± 3.8
433.15 K, 440 kPa	554.37 ± 3.1
433.15 K, 1000 kPa	555.68 ± 3
433.15 K, 2500 kPa	579.38 ± 3.1
433.15 K, 4000 kPa	602.12 ± 3.2
433.15 K, 5500 kPa	623.89 ± 3.3
433.15 K, 7000 kPa	644.7 ± 3.5
433.15 K, 8500 kPa	664.54 ± 3.6
433.15 K, 10000 kPa	683.41 ± 3.6
443.15 K, 540 kPa	511.92 ± 2.9
